Laboratory results from patent US20170166981A1, “BIOMARKERS AND METHODS OF USE THEREOF” (THE TRANSLATIONAL GENOMICS RESEARCH INSTITUTE, priority 2011, published 2017).

What was measured:
[1] = test system: metastatic triple negative breast cancer (mTNBC); assay: Clinical tumor response of metastatic/locally recurrent TNBC patients to prior and molecularly-selected therapy (TNBC personalized genomics trial); assay type: in vivo, human
From the text: The secondary objective is to conduct a comprehensive evaluation of genetic mutations in TNBC that may accelerate the development of rational and precise therapeutics; and to evaluate patient's best response to molecularly-selected therapy.
A patient eligible for clinical trial inclusion in this study had to meet all of the following criteria: (1) has a metastatic or locally recurrent triple negative breast cancer and is scheduled for medically indicated surgical biopsy or resection of disease; (2) have measurable or evaluable (nonmeasurable) disease based on results generated by RECIST v 1.1 (Eisenhauera, 2009) presented after surgical biopsy/resection. Following surgical resection, if the tumor sample is found to be inadequate for comprehensive molecular analysis, the patient would be deemed ineligible and would be replaced; (3) has received at least 1 prior chemotherapeutic regimen for their metastatic or locally recurrent TNBC prior to initiating the molecularly-selected therapy. There is no limit on the prior therapy for TNBC. Intervening therapies were strongly recommended to be held off if possible from the time of biopsy to the completion of sequencing so as not to change the cancer under the selective pressure of treatment, so that the sequencing results would be reflective of the current cancer; (4) is >18 years of age; (5) has an expected survival of at least 6 months, as estimated by the treating oncologist; (6) has planned surgical resection (indicated for the medical care of the patient) that will yield a minimum fresh/frozen tumor sample of 1 cm×1 cm×1 cm that will be available for molecular profiling analysis; (6) is agreeable to having a blood sample (10-20mL) drawn and analyzed to compare their normal genetic profile to that of their tumor sample; (7) has signed the most recent Patient Informed Consent Form and a Patient Authorization Form.
A patient would be excluded from this study if she meets any of the following criteria: (1) has breast cancer other than metastatic or locally recurrent TNBC; and surgical resection of the recurrent TNBC will render the patient as “no evidence of disease” (NED), and thus to be replaced; (2) has a history of heart disease, other conditions that would prevent treatment with a standard chemotherapeutic agent; (3) has evidence of CNS involvement that is progressing or that requires radiation, resection or steroid therapy; (4) has a serious uncontrolled intercurrent medical or psychiatric illness, including serious infection; (5) is pregnant or nursing; (6) is unable to comply with requirements of study.
Generally, 14 patients with previously treated triple negative breast cancer were included in the clinical study (Table 11). Samples were collected for sequencing with the SOLiD™ system (Applied Biosystems, Carlsbad, Calif.), and the patients were treated according to what is found after CLIA certification of the target.
The baseline was measured at the beginning of the treatment, after 2 cycles (close to two months), 75% regression in primary lesion were observed (FIG. 11).
Through the deep molecular profiling study described herein, a series of somatic events within individual tumors were detected that have informed or may have predicted the effectiveness of targeted therapies for some patients. Table 21 provides key information on therapeutically actionable concepts and clinical outcomes in the patient cohort used for this example.

BT20 breast cancer cells = conditions: reactivation of epigenetically silenced ERBB4; cited from earlier work

Cn1c(=O)n(-c2ccc(C(C)(C)C#N)cc2)c2c3cc(-c4cnc5ccccc5c4)ccc3ncc21 [BEX235]
Best results ([1]; Patient # 1, biomarker profile guided treatment (hit only one arm of what suggested MEK/AKT)): Stable Disease

Cn1c(=O)n(-c2ccc(C(C)(C)C#N)cc2)c2c3cc(-c4cnc5ccccc5c4)ccc3ncc21 [BEZ235]
reduction in nodes ([1]; Patient 14): 21%
Best results ([1]; Patient # 3, biomarker profile guided treatment): Progressive Disease

C=C1C[C@@H]2CC[C@@]34C[C@H]5O[C@H]6[C@@H](O3)[C@H]3O[C@H](CC[C@@H]3O[C@H]6[C@H]5O4)CC(=O)C[C@@H]3[C@@H](OC)[C@@H](C[C@H](O)CN)O[C@H]3C[C@H]3O[C@@H](CC[C@@H]1O2)C[C@@H](C)C3=C [Eribulin, eribulin]
Best results ([1]; Patient # 4, biomarker profile guided treatment): Stable Disease

NC(=O)c1ccc(I)c([N+](=O)[O-])c1 [Iniparib]
clinical response ([1]; patient mTNBC9 / TNBC-009 (DNA damage and double-strand break repair defects)): responsive

Nc1ncn([C@H]2C[C@H](O)[C@@H](CO)O2)c(=O)n1 [5-aza-2′-deoxycytidine]
apoptosis (BT20 breast cancer cells): increased apoptosis
